# Activity calls are given as the source filed them.
# Columns and labels:
# [1] = target: T1, DNA dC->dU-editing enzyme APOBEC-3A (Homo sapiens, UniProt P31941); test: Dose Response confirmation of small molecule APOBEC3A DNA Deaminase Inhibitors via a fluorescence-based single-stranded DNA deaminase assay. [Related pubchem assays (depositor defined):AID493011, AID493024]; assay type: functional
# [2] = target: T2, DNA dC->dU-editing enzyme APOBEC-3G (Homo sapiens, UniProt Q9HC16); assay type: functional
# T2 sequence (Q9HC16 whole entry): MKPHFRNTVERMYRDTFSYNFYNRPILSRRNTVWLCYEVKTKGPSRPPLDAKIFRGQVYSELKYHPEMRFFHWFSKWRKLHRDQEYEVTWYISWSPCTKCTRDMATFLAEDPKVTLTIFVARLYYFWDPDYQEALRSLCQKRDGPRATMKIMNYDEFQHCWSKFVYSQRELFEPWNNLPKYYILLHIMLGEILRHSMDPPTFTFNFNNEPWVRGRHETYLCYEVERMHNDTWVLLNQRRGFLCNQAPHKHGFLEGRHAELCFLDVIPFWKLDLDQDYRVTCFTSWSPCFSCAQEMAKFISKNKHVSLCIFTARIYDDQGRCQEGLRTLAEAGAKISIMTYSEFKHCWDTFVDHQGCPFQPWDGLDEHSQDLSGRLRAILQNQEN
# [3] = Luminescence Cell-Based Dose Response HTS to Identify Activators of Luciferase Translation or Activity in H4 […] Cells. [Related pubchem assays: 1829 (Project Summary), 1814 (Primary HTS)]; assay type: functional
# [4] = test system: H4; test: Luminescence Cell-Based Dose Response HTS to Identify Activators of 5'UTR Stem-Loop Driven Prion Protein mRNA Translation in H4 Neuroglioblastoma Cells. [Related pubchem assays: 1829 (Project Summary), 1814 (Primary HTS)]; assay type: functional; conditions: Homo sapiens
# [5] = target: NACHT, LRR and PYD domains-containing protein 3 (Homo sapiens, UniProt Q96P20); test: NALP3 inhibitors in yeast, dose response, luminescent (AID 488799); assay type: functional
# NACHT, LRR and PYD domains-containing protein 3, sequence (Q96P20 whole entry, the tested form may be a part): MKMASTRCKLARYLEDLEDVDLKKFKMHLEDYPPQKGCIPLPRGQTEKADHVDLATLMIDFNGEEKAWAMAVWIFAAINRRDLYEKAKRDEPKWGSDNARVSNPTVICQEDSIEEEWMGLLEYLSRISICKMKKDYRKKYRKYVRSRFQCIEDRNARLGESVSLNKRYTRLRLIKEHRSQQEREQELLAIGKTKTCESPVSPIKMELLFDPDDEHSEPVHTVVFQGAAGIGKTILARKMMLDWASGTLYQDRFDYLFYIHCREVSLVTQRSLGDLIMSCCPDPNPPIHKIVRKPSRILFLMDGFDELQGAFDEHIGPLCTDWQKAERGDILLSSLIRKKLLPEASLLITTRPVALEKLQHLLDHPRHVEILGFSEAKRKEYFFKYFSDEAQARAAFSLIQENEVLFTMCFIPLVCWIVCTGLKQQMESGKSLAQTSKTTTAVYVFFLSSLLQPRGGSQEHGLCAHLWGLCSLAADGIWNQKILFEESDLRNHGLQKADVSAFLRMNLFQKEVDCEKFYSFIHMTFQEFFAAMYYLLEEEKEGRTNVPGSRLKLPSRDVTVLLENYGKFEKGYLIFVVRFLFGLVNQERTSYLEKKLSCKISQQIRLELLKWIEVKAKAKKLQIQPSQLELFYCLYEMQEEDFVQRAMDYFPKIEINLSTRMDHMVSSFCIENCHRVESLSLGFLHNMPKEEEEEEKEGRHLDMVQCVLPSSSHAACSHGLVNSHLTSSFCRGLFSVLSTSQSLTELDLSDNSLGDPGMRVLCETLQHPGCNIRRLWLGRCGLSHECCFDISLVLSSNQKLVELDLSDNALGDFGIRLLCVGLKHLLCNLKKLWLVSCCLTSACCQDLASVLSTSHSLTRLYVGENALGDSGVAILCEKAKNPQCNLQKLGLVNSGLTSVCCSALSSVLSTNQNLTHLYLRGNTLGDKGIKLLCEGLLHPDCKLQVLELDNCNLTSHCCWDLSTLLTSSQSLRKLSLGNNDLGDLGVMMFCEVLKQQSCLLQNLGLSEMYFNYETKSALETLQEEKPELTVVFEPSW
# [6] = target: T3, Caspase-3 (Homo sapiens, UniProt P42574); assay type: functional;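 note: Dose-response selectivity test against caspase-3 for candidate inhibitors of sentrin-specific proteases (SENPs)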
# T3 sequence (P42574 whole entry): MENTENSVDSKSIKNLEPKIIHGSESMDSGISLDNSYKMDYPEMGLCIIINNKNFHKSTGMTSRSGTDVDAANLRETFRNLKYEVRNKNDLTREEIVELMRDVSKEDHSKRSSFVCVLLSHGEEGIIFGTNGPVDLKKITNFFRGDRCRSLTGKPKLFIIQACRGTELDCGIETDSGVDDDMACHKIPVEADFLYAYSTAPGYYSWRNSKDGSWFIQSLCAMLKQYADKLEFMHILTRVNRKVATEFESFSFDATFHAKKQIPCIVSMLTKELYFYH
# [7] = target: T4, Sentrin-specific protease 7 (Homo sapiens, UniProt Q9BQF6); assay type: functional;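 note: Luminescence-based dose-response confirmation of ultra-high-throughput screening hits, measuring inhibition of SENP7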
# T4 sequence (Q9BQF6 whole entry): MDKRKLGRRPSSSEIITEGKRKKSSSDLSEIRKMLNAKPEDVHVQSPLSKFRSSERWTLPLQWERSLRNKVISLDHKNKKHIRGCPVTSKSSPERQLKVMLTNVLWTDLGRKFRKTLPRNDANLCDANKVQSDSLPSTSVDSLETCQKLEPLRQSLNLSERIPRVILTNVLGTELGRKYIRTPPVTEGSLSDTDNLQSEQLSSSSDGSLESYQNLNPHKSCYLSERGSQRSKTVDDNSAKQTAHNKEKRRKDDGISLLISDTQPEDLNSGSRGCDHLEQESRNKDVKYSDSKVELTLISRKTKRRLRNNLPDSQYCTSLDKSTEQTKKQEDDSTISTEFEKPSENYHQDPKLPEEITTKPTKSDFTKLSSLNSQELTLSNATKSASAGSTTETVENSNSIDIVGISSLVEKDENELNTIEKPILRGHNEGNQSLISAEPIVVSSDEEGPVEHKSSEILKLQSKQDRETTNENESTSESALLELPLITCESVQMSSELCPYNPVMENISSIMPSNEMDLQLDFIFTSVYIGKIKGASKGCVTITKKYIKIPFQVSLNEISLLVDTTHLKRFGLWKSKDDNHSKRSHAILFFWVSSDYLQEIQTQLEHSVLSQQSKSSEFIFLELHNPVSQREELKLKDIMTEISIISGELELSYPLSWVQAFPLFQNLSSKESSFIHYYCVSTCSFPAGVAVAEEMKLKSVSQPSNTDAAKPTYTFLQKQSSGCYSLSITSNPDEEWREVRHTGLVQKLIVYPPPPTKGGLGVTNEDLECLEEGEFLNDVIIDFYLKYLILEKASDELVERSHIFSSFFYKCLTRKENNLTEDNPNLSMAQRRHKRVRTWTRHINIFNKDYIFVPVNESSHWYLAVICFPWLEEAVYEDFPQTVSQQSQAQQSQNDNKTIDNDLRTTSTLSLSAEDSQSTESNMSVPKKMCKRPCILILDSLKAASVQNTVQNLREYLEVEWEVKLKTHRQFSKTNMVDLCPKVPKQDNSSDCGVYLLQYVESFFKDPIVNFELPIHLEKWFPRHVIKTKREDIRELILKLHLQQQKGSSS
# [8] = target: T5, Sentrin-specific protease 6 (Homo sapiens, UniProt Q9GZR1); assay type: functional;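 note: Luminescence-based dose-response confirmatory assay of SENP6 inhibition, following up an ultra-high-throughput screen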
# T5 sequence (Q9GZR1 whole entry): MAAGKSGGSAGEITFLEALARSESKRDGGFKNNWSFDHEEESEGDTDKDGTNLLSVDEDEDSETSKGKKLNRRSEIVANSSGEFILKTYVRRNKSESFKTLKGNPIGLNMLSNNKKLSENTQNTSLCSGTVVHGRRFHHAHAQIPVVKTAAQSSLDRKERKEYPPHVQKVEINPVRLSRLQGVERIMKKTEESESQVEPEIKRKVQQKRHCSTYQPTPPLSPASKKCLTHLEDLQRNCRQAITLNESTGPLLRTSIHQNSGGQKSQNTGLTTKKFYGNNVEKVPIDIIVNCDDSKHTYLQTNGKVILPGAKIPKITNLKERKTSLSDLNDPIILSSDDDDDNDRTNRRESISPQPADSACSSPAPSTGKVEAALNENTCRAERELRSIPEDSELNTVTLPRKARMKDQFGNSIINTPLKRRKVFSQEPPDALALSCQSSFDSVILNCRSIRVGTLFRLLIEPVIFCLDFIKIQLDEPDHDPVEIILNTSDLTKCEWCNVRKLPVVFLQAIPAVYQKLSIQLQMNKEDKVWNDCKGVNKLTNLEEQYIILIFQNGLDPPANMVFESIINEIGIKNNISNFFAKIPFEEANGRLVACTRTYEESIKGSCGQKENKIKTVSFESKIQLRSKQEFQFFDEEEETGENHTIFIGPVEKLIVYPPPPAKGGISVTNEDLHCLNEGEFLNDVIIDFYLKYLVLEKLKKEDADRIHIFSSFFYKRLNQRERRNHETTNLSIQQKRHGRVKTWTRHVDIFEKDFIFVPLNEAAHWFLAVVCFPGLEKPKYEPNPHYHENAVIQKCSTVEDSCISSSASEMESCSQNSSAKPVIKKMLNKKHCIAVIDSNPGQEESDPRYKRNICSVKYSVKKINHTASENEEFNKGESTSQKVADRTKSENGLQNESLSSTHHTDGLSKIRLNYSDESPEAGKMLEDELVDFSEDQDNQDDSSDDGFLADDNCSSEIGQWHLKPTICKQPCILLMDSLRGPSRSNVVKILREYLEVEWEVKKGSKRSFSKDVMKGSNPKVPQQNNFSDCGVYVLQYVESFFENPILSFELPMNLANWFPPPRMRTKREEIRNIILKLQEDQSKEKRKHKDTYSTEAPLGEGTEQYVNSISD
# [9] = target: T6, Sentrin-specific protease 8 (Homo sapiens, UniProt Q96LD8); assay type: functional;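 note: luminescence read-out of SENP8 inhibition, dose-response confirmation following an ultra-high-throughput screen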
# T6 sequence (Q96LD8 whole entry): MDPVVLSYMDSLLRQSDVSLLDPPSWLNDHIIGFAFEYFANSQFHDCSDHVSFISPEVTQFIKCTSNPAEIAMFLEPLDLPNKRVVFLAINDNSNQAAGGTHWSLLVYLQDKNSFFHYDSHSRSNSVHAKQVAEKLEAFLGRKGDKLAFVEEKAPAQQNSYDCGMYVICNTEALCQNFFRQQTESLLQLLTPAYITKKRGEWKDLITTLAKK
# [10] = HEK-293T viability loss after treatment – luminescence, T-cell screen hits, cytotoxicity control for TCR NF-kB inhibitor project, dose response (AID 489026); assay type: functional, cell-based;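 note: cells exposed to compound about 14 hours before the viability readout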
# [11] = target: Nonstructural protein 1 (Influenza A virus, UniProt Q194T2); assay type: functional, Influenza A virus (A/California/07/2009(H1N1))
# Nonstructural protein 1, sequence (Q194T2 whole entry, the tested form may be a part): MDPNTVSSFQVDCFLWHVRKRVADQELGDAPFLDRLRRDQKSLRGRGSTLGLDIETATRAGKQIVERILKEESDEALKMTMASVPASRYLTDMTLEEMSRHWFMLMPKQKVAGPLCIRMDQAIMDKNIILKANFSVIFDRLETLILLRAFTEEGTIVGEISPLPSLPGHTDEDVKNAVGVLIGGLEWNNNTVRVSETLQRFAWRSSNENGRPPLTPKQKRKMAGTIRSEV
# [12] = blockers of HIV-1 envelope-mediated cell-cell fusion – cherry-pick, dose response (AID 652057); assay type: functional, cell-based
# [13] = viability loss in CEM21 cells – cell-based, CellTiter-Glo luminescence, cherry-picked, cytotoxicity control for viral fusion inhibitor project, dose response (AID 652042); assay type: functional;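 note: potency for signal decrease meaning cytotoxicity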
# [14] = blockers of HIV-1 ZM109 envelope-driven cell-cell fusion – HeLa effector, CEM target cells, luciferase, cherry-pick, dose response (AID 652058); assay type: functional, cell-based;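 note: luciferase signal from HIV-1 Env mediated cell-cell fusion of effector and target cells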
# [15] = off-target signal loss in HeLa-CEM21 co-culture – HeLa F-luc CTL cells, cherry-picked, counter-screen for HIV-1 Env fusion inhibitor project, dose response (AID 652040); assay type: functional, cell-based;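 note: potency for signal decrease marking cytotoxic or nonspecific inhibition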
# [16] = HIV-1 AD8 envelope cell-cell fusion blockers – cherry-pick, dose response (AID 652062); assay type: functional, cell-based;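 note: luciferase signal from cell-cell fusion driven by HIV-1 clade B AD8 Env; potency is for inhibitors of fusion seen as a drop in luminescence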
# [17] = target: T7, Voltage-gated N-type calcium channel alpha-1B subunit/Amyloid beta A4 precursor protein-binding family A member 1 (Homo sapiens, UniProt Q00975+Q02410); assay type: protein assay
# T7 sequence (Q00975 whole entry): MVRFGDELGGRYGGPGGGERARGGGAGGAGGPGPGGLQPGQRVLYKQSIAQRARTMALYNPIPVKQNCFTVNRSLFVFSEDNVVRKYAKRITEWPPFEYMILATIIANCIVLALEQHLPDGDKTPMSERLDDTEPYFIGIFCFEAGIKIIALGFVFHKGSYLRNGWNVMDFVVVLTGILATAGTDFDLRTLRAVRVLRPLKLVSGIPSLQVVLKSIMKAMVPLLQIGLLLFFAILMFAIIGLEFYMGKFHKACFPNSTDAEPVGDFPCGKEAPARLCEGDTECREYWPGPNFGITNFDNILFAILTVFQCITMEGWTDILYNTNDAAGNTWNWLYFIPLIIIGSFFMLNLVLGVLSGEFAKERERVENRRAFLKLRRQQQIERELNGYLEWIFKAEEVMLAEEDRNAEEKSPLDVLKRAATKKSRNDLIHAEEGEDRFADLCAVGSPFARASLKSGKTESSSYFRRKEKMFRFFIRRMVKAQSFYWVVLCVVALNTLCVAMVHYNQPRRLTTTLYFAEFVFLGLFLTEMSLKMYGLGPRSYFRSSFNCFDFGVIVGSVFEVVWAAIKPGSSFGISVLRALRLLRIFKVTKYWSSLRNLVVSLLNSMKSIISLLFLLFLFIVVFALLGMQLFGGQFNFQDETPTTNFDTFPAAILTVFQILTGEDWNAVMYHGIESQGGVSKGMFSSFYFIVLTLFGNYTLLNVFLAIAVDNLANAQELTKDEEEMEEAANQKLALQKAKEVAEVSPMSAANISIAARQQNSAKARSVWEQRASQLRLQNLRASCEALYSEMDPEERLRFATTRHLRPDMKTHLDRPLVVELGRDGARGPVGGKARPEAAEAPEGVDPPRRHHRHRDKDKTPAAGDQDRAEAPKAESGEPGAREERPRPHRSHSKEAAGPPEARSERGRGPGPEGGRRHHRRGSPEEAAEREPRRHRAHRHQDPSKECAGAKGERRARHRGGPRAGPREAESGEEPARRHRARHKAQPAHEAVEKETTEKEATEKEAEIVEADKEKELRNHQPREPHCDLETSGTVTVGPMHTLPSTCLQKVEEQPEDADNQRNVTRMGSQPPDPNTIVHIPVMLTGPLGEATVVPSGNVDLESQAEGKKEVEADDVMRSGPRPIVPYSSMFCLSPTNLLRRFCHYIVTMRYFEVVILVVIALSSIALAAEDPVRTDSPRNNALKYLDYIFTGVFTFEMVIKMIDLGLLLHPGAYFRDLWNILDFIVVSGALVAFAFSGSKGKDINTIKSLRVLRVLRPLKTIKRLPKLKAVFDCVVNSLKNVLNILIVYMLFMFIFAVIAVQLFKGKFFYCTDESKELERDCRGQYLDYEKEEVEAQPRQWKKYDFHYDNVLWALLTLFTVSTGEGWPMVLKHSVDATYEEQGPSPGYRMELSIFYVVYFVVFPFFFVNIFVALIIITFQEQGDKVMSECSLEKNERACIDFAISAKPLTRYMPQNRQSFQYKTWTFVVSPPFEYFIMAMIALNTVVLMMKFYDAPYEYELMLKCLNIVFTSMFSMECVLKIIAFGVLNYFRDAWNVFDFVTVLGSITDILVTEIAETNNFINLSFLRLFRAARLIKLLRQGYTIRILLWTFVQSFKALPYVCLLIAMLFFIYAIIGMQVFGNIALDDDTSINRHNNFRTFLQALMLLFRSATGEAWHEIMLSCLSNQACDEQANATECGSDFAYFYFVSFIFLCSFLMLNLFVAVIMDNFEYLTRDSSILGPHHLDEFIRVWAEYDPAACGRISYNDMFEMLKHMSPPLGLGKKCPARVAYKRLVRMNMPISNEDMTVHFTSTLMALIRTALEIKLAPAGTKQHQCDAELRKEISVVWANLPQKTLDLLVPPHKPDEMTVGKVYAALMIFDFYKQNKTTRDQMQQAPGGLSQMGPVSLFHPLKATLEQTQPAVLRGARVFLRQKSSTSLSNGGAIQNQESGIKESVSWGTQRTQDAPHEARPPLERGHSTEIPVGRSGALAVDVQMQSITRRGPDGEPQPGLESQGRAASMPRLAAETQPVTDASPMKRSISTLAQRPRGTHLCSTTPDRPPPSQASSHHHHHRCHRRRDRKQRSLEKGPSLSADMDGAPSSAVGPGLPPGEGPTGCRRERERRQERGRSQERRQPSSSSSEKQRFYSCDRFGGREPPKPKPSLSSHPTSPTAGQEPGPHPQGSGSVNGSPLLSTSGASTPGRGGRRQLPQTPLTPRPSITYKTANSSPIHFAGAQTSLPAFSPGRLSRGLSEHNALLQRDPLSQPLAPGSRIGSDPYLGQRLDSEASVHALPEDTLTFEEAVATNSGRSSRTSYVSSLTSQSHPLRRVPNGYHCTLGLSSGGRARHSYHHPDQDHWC
# T7 sequence (Q02410 whole entry): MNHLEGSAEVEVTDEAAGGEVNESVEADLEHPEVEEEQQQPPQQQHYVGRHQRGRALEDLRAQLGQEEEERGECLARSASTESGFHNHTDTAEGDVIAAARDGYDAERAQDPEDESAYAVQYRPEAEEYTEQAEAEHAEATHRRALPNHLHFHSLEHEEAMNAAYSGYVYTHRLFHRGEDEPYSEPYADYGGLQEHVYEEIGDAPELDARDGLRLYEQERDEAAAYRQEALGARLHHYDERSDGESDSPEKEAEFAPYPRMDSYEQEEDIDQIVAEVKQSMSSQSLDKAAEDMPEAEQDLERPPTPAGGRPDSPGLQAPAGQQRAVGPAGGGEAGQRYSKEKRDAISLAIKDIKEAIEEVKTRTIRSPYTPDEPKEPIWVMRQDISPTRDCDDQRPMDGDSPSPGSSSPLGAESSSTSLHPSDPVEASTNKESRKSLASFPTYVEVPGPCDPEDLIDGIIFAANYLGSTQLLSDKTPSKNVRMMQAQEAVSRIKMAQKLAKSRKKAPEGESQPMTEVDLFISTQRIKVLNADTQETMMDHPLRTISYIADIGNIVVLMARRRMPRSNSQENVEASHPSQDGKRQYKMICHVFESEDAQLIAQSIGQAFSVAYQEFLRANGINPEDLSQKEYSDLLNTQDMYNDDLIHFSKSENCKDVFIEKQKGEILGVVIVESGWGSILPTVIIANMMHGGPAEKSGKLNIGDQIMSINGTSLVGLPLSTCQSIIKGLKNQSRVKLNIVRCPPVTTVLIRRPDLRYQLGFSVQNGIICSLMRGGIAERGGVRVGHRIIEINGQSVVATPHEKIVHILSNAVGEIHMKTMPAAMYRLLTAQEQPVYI
# [18] = target: Large T antigen (Simian virus 40, UniProt P03070); assay type: functional, Betapolyomavirus macacae;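 note: Confirmatory-stage PubChem screen for compounds that inhibit SV40 T antigen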
# [19] = target: T7, Voltage-gated N-type calcium channel alpha-1B subunit/Amyloid beta A4 precursor protein-binding family A member 1; assay type: protein assay; remark: listed apart in the source
# [20] = target: Induced myeloid leukemia cell differentiation protein Mcl-1 (Homo sapiens, UniProt Q07820); assay type: functional
# [21] = target: Genome polyprotein (dengue virus type 2, UniProt P29990); test: flavivirus cap methylation enzyme inhibition – biochemical, confirmation dose response, primary screen (AID 588689); assay type: functional
# [22] = target: T8, Carboxy-terminal domain RNA polymerase II polypeptide A small phosphatase 1 (Homo sapiens, UniProt Q9GZU7); test: CTDSP1 inhibitors, concentration-response, biochemical, absorbance readout, ultra-high-throughput screen actives (AID 540297); assay type: functional
# T8 sequence (Q9GZU7 whole entry): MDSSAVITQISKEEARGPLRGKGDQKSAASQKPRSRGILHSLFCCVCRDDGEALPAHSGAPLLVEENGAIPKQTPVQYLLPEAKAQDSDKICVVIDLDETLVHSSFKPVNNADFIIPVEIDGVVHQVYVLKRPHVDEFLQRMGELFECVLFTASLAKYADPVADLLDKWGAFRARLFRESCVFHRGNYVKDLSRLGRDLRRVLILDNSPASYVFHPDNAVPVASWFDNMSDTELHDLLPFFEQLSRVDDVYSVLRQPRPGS
# [23] = target: T7, Voltage-gated N-type calcium channel alpha-1B subunit/Amyloid beta A4 precursor protein-binding family A member 1; test: disruptors of Mint-PDZ/N-type channel peptide interaction – biochemical, HTRF, SAR follow-up (AID 2489); assay type: functional
# [24] = target: Alkaline phosphatase, placental type (Homo sapiens, UniProt P05187); test: human placental alkaline phosphatase inhibition – biochemical, luminescence, confirmation (AID 1512); assay type: functional
# [25] = target: T9, Alkaline phosphatase, tissue-nonspecific isozyme (Homo sapiens, UniProt P05186); test: potency against alkaline phosphatase TNAP – biochemical, luminescent, dose response, SAR follow-up (AID 1056)
# T9 sequence (P05186 whole entry): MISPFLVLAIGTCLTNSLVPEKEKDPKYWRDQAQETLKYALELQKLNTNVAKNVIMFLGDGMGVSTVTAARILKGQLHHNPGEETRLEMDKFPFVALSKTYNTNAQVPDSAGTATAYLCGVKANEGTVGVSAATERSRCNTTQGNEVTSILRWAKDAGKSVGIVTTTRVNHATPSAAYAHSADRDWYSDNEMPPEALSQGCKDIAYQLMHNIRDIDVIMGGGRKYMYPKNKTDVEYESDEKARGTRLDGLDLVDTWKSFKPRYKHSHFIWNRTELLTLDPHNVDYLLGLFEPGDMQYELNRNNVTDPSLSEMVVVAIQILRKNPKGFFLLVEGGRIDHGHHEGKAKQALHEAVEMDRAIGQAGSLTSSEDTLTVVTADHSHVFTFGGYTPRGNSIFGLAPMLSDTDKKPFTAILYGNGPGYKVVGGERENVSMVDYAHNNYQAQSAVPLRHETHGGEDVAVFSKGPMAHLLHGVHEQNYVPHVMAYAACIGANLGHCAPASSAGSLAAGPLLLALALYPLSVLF
# [26] = target: T1, DNA dC->dU-editing enzyme APOBEC-3A; test: A3A deaminase inhibition for selectivity – biochemical, dose response (AID 504722); assay type: functional
# [27] = target: T2, DNA dC->dU-editing enzyme APOBEC-3G; test: Dose Response confirmation of small molecule APOBEC3G DNA Deaminase Inhibitors via a fluorescence-based single-stranded DNA deaminase assay. [Related pubchem assays (depositor defined):AID493012, AID493028]; assay type: functional
# [28] = target: Glyceraldehyde-3-phosphate dehydrogenase (Homo sapiens, UniProt P04406)
# T1 sequence (P31941 whole entry): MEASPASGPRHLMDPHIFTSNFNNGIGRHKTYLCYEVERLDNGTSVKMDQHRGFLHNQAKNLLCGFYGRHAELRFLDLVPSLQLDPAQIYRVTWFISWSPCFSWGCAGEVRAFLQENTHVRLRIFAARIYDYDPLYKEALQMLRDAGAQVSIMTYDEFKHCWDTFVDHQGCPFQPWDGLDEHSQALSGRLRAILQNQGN
structure (smiles),measurement,setting,value
CSc1ccc(S(=O)(=O)N2CCC(C(=O)NCc3ccccn3)CC2)cc1,IC50,[1],6.18 µM (active)
same,IC50,[2],13.9 µM (active)
CCCC1CCC(c2ccc(OCC)cc2)=CC1=O (centres undefined),EC50,[3],0.126 µM (active)
same,EC50,[4],20.7 µM (inconclusive)
same,IC50,[5],53.9 µM (active)
same,IC50,[6],21.3 µM (active)
same,IC50,[7],10.1 µM (active)
same,IC50,[8],29.6 µM (active)
same,IC50,[9],40.2 µM (active)
CCN(CC)c1ccc2nc3ccc(N)cc3[n+](-c3ccccc3)c2c1,IC50,[5],4.79 µM (active)
same,IC50,[10],67.7 µM (inactive)
same,IC50,[11],8.47 µM (active)
same,AC50,[12],3.78 µM (active)
same,AC50,[13],3.25 µM (active)
same,AC50,[14],1.28 µM (active)
same,AC50,[15],1.41 µM (active)
same,AC50,[16],3.84 µM (active)
O=C(O)CCn1cc(C=C2C(=O)NC(=S)NC2=O)c(-c2cccc(Cl)c2)n1,IC50,[17],30.7 µM (active)
same,IC50,[18],76.3 µM (active)
same,IC50,[19],13 µM (active)
same,IC50,[20],2.87 µM (active)
same,IC50,[21],10.9 µM (active)
same,IC50,[22],10.1 µM (active)
CC(=O)NS(=O)(=O)c1ccc(NC(=O)/C=C/c2ccc(C)o2)cc1,IC50,[17],6.9 µM (active)
same,IC50,[19],2.19 µM (active)
same,IC50,[23],> 56.8 µM (inactive)
CC(C)(C)OC(=O)N1CC(O)CC1C(=O)OCC(=O)c1ccc(-c2ccccc2)cc1 (centres undefined),IC50,[1],1.79 µM (active)
same,IC50,[2],2.89 µM (active)
CC(C)(C)C1(C)Oc2cccc(O)c2O1 (centres undefined),IC50,[24],> 100 µM (inactive)
same,IC50,[25],> 100 µM (inactive)
Cc1ccccc1/C=N/n1c(S)nnc1-c1ccccn1,IC50,[26],> 100 µM (inactive)
same,IC50,[27],4.13 µM (active)
CN1CCN(C(=O)c2cc(-c3ccc(Cl)cc3Cl)n[nH]2)CC1,IC50,[28],> 100 µM (not active)
same,IC50,[24],> 100 µM (inactive)
